# Source: patent US4372877A, “Di(acylperoxy)-1,4-cyclohexane dimethanol-bis-carbonates” (priority 1981, dated 1983)
# Key:
# [1] = Vinyl chloride suspension polymerization (% conversion)
# Procedure: As mentioned, the instant bis-carbonates are useful for the initiation of monomers having polymerizable ethylenic or vinyl unsaturation, such as ethylene, styrene, methyl methacrylate and vinyl chloride and copolymers thereof. The data was generated with suspension polymerization performed in 12 ounce pop bottles using uninhibited monomer. Duplicate bottles were analyzed at each time interval for which data is listed. Bottles were frozen before venting off of excess monomer. Mixing speed of the pop bottles was 42 rpm. The water to vinyl chloride monomer ratio was 2.50. Each pop bottle contained 0.35 gms Dow Methocel 90 HG, 100 cps suspension agent per 100 gms vinyl chloride monomer.
# [2] = Ten-hour half-life temperature (0.1 M in benzene); format: physicochemical
# Text: Table I provides the ten-hour half-life of the compounds of the instant invention synthesized in Examples 1-3.
# Peroxide (0.1 M in benzene)
# [3] = Hot Block Gel Tests With Polyester Resin; conditions: block 180 °F, 1% wt peroxide (100% purity basis)
# Text: As mentioned above, the new molecules can be used for curing of polyester resins and this utility is illustrated in Tables V and VI below. Typical prior art peroxy dicarbonates and carbonates of the prior art are included for comparison.
# Hot Block Gel Tests With Polyester Resin
# Resin: MR 941 (U.S.S. Chemical - orthophthalic)
# Concentrations of peroxide adjusted to 100% purity basis, 1% wt
# [4] = Storage stability at 40 °C; format: physicochemical; parameters: A.O.: unit not given here
# Procedure: APCD from Example 1 is selected as representative and was tested over a period of 89 days at 40° C. Representative peroxy carbonate and dicarbonates of the prior art are also included for comparison.
# Storage Stability at 40° C.
# [5] = disclosed in prior art U.S. patents; cited from earlier work
# [6] = 55 °C, 5.5 Hrs., 2.01 × 10^-4 moles/100g VCM (APCD 0.070, LPCD 0.126, BPCD 0.095 % wt)
# [7] = 55 °C, 5.5 Hrs., 2.30 × 10^-4 moles/100g VCM (APCD 0.080, LPCD 0.145, BPCD 0.109 % wt)
# [8] = 60 °C, 5.0 Hrs., 1.15 × 10^-4 moles/100g VCM (APCD 0.040, LPCD 0.072, BPCD 0.054 % wt)
# [9] = 60 °C, 5.0 Hrs., 1.45 × 10^-4 moles/100g VCM (APCD 0.051, LPCD 0.091 % wt)
Structure (SMILES),Ten-Hour Half-Life Temperature [2] [°C],Exotherm Time ([3]; Table V) [min],Gel Time ([3]; Table V) [min],Exotherm Time ([3]; Table VI) [min],Gel Time ([3]; Table VI) [min],% Purity ([4]; 0 days elapsed) [%],A.O. ([4]; 0 days elapsed),% Purity ([4]; 7 days elapsed) [%],A.O. ([4]; 7 days elapsed),% Purity ([4]; 14 days elapsed) [%],A.O. ([4]; 14 days elapsed),% Purity ([4]; 28 days elapsed) [%],A.O. ([4]; 28 days elapsed),% Purity ([4]; 59 days elapsed) [%],A.O. ([4]; 59 days elapsed),% Purity ([4]; 89 days elapsed) [%],A.O. ([4]; 89 days elapsed),other results
"CC(=O)OOC(=O)OCC1CCC(COC(=O)OOC(C)=O)CC1 (stereo not drawn) [APCD, di(acetylperoxy)-1,4-cyclohexane dimethanol bis-carbonate]",55.2,4.05,3.38,4.20,3.58,99.6,9.15,99.5,9.14,98.3,9.03,97.7,8.98,95.4,8.77,93.4,8.58,"% Conversion ([1]; 55 °C, 1.5 Hrs., 2.23 × 10^-4 moles/100g VCM (APCD 0.0775 % wt)): 13.6%; % Conversion ([1]; 55 °C, 3.5 Hrs., 2.23 × 10^-4 moles/100g VCM (APCD 0.0775 % wt)): 42.0%; % Conversion ([1]; 55 °C, 5.5 Hrs., 0.85 × 10^-4 moles/100g VCM (APCD 0.030 % wt)): 35.7%; % Conversion ([1]; 55 °C, 5.5 Hrs., 1.15 × 10^-4 moles/100g VCM (APCD 0.040 % wt)): 45.6%; % Conversion ([1]; 55 °C, 5.5 Hrs., 1.45 × 10^-4 moles/100g VCM (APCD 0.051 % wt)): 55.7%; % Conversion ([1]; 55 °C, 5.5 Hrs., 1.72 × 10^-4 moles/100g VCM (APCD 0.060, BPCD 0.081 % wt)): 60.5%; % Conversion [1, 6]: 71.5%; % Conversion ([1]; 55 °C, 5.5 Hrs., 2.23 × 10^-4 moles/100g VCM (APCD 0.0775 % wt)): 80.3%; % Conversion [1, 7]: 83.0%; % Conversion ([1]; 60 °C, 1.5 Hrs., 1.36 × 10^-4 moles/100g VCM (APCD 0.0475 % wt)): 15.1%; % Conversion ([1]; 60 °C, 3.5 Hrs., 1.36 × 10^-4 moles/100g VCM (APCD 0.0475 % wt)): 46.9%; % Conversion ([1]; 60 °C, 5.0 Hrs., 0.85 × 10^-4 moles/100g VCM (APCD 0.030, BPCD 0.040 % wt)): 48.5%; % Conversion [1, 8]: 65.9%; % Conversion ([1]; 60 °C, 5.0 Hrs., 1.36 × 10^-4 moles/100g VCM (APCD 0.0475 % wt)): 83.1%; % Conversion [1, 9]: 86.6%"
CC(C)(C)C1CCC(OC(=O)OOC(=O)OC2CCC(C(C)(C)C)CC2)CC1 (stereo not drawn) [Di(4-t-butylcyclohexyl) peroxydicarbonate],43.0,3.39,2.46,3.58,2.74,97.8,3.92,96.4,3.86,96.4,3.86,95.2,3.82,93.0,3.73,93.2,3.74,–
"CCCCCCCCCCCC(=O)OOC(=O)OCC1CCC(COC(=O)OOC(=O)CCCCCCCCCCC)CC1 (stereo not drawn) [LPCD, di(lauroylperoxy)-1,4-cyclohexane dimethanol bis-carbonate]",51.4,–,–,4.96,4.05,–,–,–,–,–,–,–,–,–,–,–,–,"% Conversion [1, 6]: 60.9%; % Conversion [1, 7]: 72.0%; % Conversion [1, 8]: 51.4%; % Conversion [1, 9]: 65.4%"
CCCCCCCCCCCCCCCCCCOC(=O)OOC(C)=O [acetyl peroxystearyl carbonate],–,4.05,3.13,–,–,94.1,4.04,93.5,4.01,93.1,4.00,91.5,3.92,87.9,3.77,78.8,3.38,–
CC(C)(COC(=O)OOC(=O)OCC(C)(C)c1ccccc1)c1ccccc1 [di(2-methyl-2-phenylpropyl) peroxy dicarbonate],–,–,–,–,–,–,–,–,–,–,–,–,–,–,–,–,–,stability at room/ambient temperature [5]: ambient temperature stability
O=C(OCCOc1ccccc1)OOC(=O)OCCOc1ccccc1 [di(phenoxyethyl) peroxydicarbonate],42.2,5.62,5.45,–,–,97.4,4.31,94.4,4.17,93.3,4.12,91.1,4.03,84.7,3.74,73.1,3.23,–
O=C(OOC(=O)OC1CCCCCCCCCCC1)OC1CCCCCCCCCCC1 [dicyclododecyl peroxy dicarbonate],–,–,–,–,–,–,–,–,–,–,–,–,–,–,–,–,–,stability at room/ambient temperature [5]: stability that permits storage at room temperature
